According to ChEMBL document CHEMBL4680188 (Eur J Med Chem, 2020):
Active and inactive are the calls of the source. The rule behind the calls is not given here.

Key:
[1] = molecular target: T1, Melatonin receptor type 1B (Homo sapiens, UniProt P49286); experiment: Agonist activity at human MT2 expressed in CHO cell membrane incubated for 1 hr by [35S]GTPgammaS binding assay; format: functional, cell membranes
T1 sequence (P49286 whole entry): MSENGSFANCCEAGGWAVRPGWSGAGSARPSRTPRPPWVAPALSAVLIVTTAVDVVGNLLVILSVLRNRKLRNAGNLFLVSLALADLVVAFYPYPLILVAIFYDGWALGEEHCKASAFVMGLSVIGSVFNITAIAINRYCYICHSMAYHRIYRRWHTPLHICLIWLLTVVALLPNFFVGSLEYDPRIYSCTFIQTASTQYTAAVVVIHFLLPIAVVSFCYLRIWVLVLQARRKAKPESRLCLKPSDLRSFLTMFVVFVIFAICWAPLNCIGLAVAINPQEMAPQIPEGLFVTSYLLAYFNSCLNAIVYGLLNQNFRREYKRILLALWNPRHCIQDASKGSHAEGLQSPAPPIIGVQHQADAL

[2] = Oral bioavailability in rat; format: ADME, organism-based; details: in vivo
[3] = molecular target: T2, 5-hydroxytryptamine receptor 2C (Homo sapiens) (UniProt P28335); experiment: Binding affinity to human 5HT2C expressed in CHO cells; format: cell-based
T2 sequence (whole entry): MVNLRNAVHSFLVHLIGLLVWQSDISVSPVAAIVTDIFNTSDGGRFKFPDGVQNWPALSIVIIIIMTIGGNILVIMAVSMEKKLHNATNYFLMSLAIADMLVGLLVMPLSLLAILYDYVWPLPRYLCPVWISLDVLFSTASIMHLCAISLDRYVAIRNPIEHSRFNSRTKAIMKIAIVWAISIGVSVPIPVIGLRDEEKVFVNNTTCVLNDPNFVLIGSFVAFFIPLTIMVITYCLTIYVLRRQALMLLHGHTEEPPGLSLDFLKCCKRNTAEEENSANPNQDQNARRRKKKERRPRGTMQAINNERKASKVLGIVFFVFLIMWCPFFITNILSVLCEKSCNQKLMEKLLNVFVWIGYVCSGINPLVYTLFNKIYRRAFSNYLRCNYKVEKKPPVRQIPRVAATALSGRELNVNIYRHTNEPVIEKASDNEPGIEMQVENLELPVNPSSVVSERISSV

[4] = Permeability in human Caco-2 cells; format: ADME, cell-based
[5] = molecular target: T3, Melatonin receptor type 1A (Homo sapiens, UniProt P48039); experiment: Agonist activity at human MT1 expressed in CHO cell membrane incubated for 1 hr by [35S]GTPgammaS binding assay; format: functional, cell membranes
T3 sequence (P48039 whole entry): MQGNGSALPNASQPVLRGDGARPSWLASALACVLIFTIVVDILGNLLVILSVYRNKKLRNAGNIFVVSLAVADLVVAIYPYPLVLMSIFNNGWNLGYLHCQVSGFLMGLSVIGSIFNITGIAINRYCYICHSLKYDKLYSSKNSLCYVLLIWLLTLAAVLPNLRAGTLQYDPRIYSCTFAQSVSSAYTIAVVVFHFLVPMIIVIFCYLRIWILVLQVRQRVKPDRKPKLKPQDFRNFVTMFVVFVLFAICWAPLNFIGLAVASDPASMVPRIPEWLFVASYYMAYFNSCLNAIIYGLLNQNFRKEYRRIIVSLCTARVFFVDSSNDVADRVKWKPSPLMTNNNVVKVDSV

[6] = molecular target: T1, Melatonin receptor type 1B; experiment: Displacement of 2-[125l]-lodomelatonin from human MT2 expressed in CHO cells incubated for 120 mins by radioligand binding assay; format: cell-based
[7] = molecular target: T3, Melatonin receptor type 1A; experiment: Displacement of 2-[125l]-lodomelatonin from human MT1 expressed in CHO cells incubated for 120 mins by radioligand binding assay; format: cell-based
[8] = Oral bioavailability in human; format: ADME, organism-based; details: in vivo

SMILES	EC50 [1]	bioavailability [2]	Activity [3]	permeability [4]	EC50 [5]	Ki [6]	Ki [7]	bioavailability [8]
COc1ccc2cnnc(CCNC(=O)C3CC3)c2c1	1250 nM		inactive		> 10000 nM	1370 nM	3020 nM	
COc1cccc(-c2nc(CCNC(C)=O)c3cc(OC)ccc3n2)c1	543 nM		inactive		321 nM	46 nM	500 nM	
COc1ccc2cnnc(CCNC(C)=O)c2c1	428 nM		inactive	2%	> 10000 nM	799 nM	2110 nM	
COc1ccc2nc(-c3ccccc3)nc(CCNC(C)=O)c2c1	237 nM	2%	inactive	100%	> 10000 nM	15.6 nM	896 nM	7%
CCC(=O)NCCc1nncc2ccc(OC)cc12	327 nM	54%	inactive	100%	> 10000 nM	414 nM	1470 nM	46%
COc1ccc2cccc(CCNC(C)=O)c2c1 [AGOMELATINE]		13%		100%				11%

Other lines, results leading:

EC50 [1]	bioavailability [2]	Activity [3]	permeability [4]	EC50 [5]	Ki [6]	Ki [7]	bioavailability [8]	SMILES
835 nM	92%	inactive	100%	2600 nM	115 nM	230 nM	97%	COc1ccc2ncnc(CCNC(C)=O)c2c1
89 nM	33%	inactive	100%	> 10000 nM	108 nM	1140 nM	36%	CCCC(=O)NCCc1nncc2ccc(OC)cc12
		inactive			> 10000 nM	> 10000 nM		COc1ccc2ncnc(NCCNC(C)=O)c2c1
		inactive			398 nM	549 nM		COc1ccc2ncnc(CCNC(=O)C3CC3)c2c1
		inactive			2800 nM	> 10000 nM		CCNC(=O)N1CCN(c2ncnc3ccc(OC)cc23)CC1
		inactive			3300 nM	> 10000 nM		COc1ccc2ncnc(N3CCN(C(=O)C4CC4)CC3)c2c1
238 nM		inactive		432 nM	41.1 nM	210 nM		CCC(=O)NCCc1ncnc2ccc(OC)cc12
219 nM	69%	inactive		652 nM	41 nM	320 nM	36%	CCCC(=O)NCCc1ncnc2ccc(OC)cc12
